One may read the Ki as a measure of affinity in units of concentration, obtained from inhibition or displacement. Higher therefore signals weaker binding.

SMILES strings stand for the structures.

Consider 12 compounds from ChEMBL document CHEMBL3120137, “Substituted benzene sulfonamides incorporating 1,3,5-triazinyl moieties potently inhibit human carbonic anhydrases II, IX and XII” (Bioorg Med Chem Lett, 2014).

The test deals with Carbonic anhydrase 9 (Homo sapiens, UniProt Q16790). Kind of test: Inhibition of human transmembrane carbonic anhydrase 9 preincubated for 15 mins by stopped flow CO2 hydration assay.

Compound `NS(=O)(=O)c1ccc(Nc2nc(N3CCOCC3)nc(N3CCOCC3)n2)cc1` came in with a Ki of 34.1 nM. For `Cc1cccc(Nc2nc(Nc3ccc(S(N)(=O)=O)cc3)nc(N3CCOCC3)n2)c1`, the Ki turned out to be 10.2 nM. `Nc1nc(N)nc(Nc2ccc(S(N)(=O)=O)cc2)n1` displayed a Ki of 2.4 nM. For `CC(C)(C)Nc1nc(Nc2ccc(S(N)(=O)=O)cc2)nc(NC(C)(C)C)n1`, the Ki is 19.3 nM. In the case of `CN(CCO)c1nc(Nc2ccc(S(N)(=O)=O)cc2)nc(N(C)CCO)n1`, affinity was put at a Ki of 5.9 nM.

Compound `NCCCNc1nc(NCCCN)nc(Nc2ccc(S(N)(=O)=O)cc2)n1` registered a Ki of 18.3 nM. Against the preceding compound, the Ki is about 3.1-fold higher. The compound `Nc1cccnc1Nc1ccc(S(N)(=O)=O)cc1` had an inhibition constant (Ki) of 10.7 nM. `COc1ccc(Nc2ccc(S(N)(=O)=O)cc2)nn1` returned an inhibitory constant (Ki) of 8.5 nM. In turn, `NS(=O)(=O)c1ccc(Nc2nc(Cl)nc(Nc3ccccc3)n2)cc1` came in with a Ki of 5.9 nM. Under `CN(CCO)c1nc(Cl)nc(Nc2ccc(S(N)(=O)=O)cc2)n1` stands 1.2 nM; under `NCCCNc1nc(Cl)nc(Nc2ccc(S(N)(=O)=O)cc2)n1`, 21.4 nM; under `NS(=O)(=O)c1ccc(Nc2nc(Cl)nc(Nc3ccc(F)c(Cl)c3)n2)cc1`, 21.2 nM.
